Test results published in patent US11702422B2, “Imidazopyridazines as modulators of IL-17” (Janssen Pharmaceutica NV, priority 2020, dated 2023).

Tests used:
[1] = target: IL-17A(FLAG-Tagged): IL-17RA(His-Tagged) (Homo sapiens, UniProt Q16552, K93Q); experiment: IL-17A(FLAG-Tagged): IL-17RA(His-Tagged) Binding Disruption Eu-HTRF Assay; conditions: IL-17A/IL-17RA binding disruption, simple average if tested more than once
Summary of the method: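 IC50 comes from a one-site competition fit of the HTRF 665/620 nm ratio. Compound dilutions (2-fold, 22 points) were held 1 h rt with FLAG-tagged IL-17A dimer, then His-tagged IL-17RA plus Eu-cryptate anti-FLAG and D2 anti-His antibodies were added for 2 h rt.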

[2] = test system: IL-17A-induced G-CSF production in human normal keratinocyte (NHK); experiment: NHK Assay: IL-17A-induced G-CSF production in human normal keratinocytes; assay type: cell-based; conditions: 24 h, adult normal human keratinocytes, IL-17A 5 ng/mL, simple average if tested more than once
Summary of the method: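 Inhibition of IL-17A-driven G-CSF release is measured in adult keratinocytes stimulated for 24 h at 37° C with 5 ng/mL human IL-17A that had been pre-incubated with compound for 1 h. IC50 comes from HTRF G-CSF levels; cell viability is checked in parallel by luminescent ATP assay.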

Chain of UniProt Q16552 (Q16552 with tags, fused parts or gaps K93Q): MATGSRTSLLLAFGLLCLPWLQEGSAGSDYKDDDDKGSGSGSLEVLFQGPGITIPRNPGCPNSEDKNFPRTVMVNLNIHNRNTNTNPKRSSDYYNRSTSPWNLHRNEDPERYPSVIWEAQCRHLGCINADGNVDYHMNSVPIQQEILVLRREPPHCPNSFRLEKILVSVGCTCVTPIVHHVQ

Structure (SMILES)	IC50 [1]	IC50 ([2]; Homo sapiens, Keratinocyte)	IC50 [2]
Cc1nonc1C(=O)N[C@H](c1cn2ncc([C@H](NC(=O)CC(C)C(F)(F)F)C3CC3)cc2n1)C1CCC(F)(F)CC1 (single isomer, unassigned) [Example 243, N—((S)-(7-((R)-Cyclopropyl((R*)-4,4,4-trifluoro-3-methylbutanamido)methyl)imidazo[1,2-b]pyridazin-2-yl)(4,4-difluorocyclohexyl)methyl)-4-methyl-1,2,5-oxadiazole-3-carboxamide]	89 nM	270 nM	–
O=C(CCC(F)(F)F)N[C@@H](c1cnn2cc([C@@H](NC(=O)c3cncc(C4CC4)c3)C3CCC(F)(F)CC3)nc2c1)C1CC1 [Example 414, 5-Cyclopropyl-N—((S)-(7-((R)-cyclopropyl(4,4,4-trifluorobutanamido)methyl)imidazo[1,2-b]pyridazin-2-yl)(4,4-difluorocyclohexyl)methyl)nicotinamide]	57 nM	730 nM	–
[2H]C([2H])([2H])n1nccc1C(=O)N[C@H](c1cn2ncc([C@H](NC(=O)CCC(F)(F)F)C3CC3)cc2n1)C1CCC(F)(F)CC1 [Example 488, N—((S)-(7-((R)-Cyclopropyl(4,4,4-trifluorobutanamido)methyl)imidazo[1,2-b]pyridazin-2-yl)(4,4-difluorocyclohexyl)methyl)-1-(methyl-d3)-1H-pyrazole-5-carboxamide]	95 nM	220 nM	–
Cc1nonc1C(=O)N[C@H](c1cn2ncc([C@H](NC(=O)CCC(F)(F)F)C3CC3)cc2n1)C1CCC(F)(F)CC1 [Example 157, N—((S)-(7-((R)-Cyclopropyl(4,4,4-trifluorobutanamido)methyl)imidazo[1,2-b]pyridazin-2-yl)(4,4-difluorocyclohexyl)methyl)-4-methyl-1,2,5-oxadiazole-3-carboxamide]	36 nM	150 nM	–
CC(C)n1nccc1C(=O)N[C@H](c1cn2ncc([C@H](NC(=O)C34CC(F)(C3)C4)C3CC3)cc2n1)C1CCC(F)(F)CC1 [Example 268, N—((S)-(7-((R)-Cyclopropyl(3-fluorobicyclo[1.1.1]pentane-1-carboxamido)methyl)imidazo[1,2-b]pyridazin-2-yl)(4,4-difluorocyclohexyl)methyl)-1-isopropyl-1H-pyrazole-5-carboxamide]	750 nM	3000 nM	–
CC(C)n1ncc(F)c1C(=O)N[C@H](c1cn2ncc([C@H](NC(=O)CCC(F)(F)F)C3CC3)cc2n1)C1CCC(F)(F)CC1 [Example 111, N—((S)-(7-((R)-Cyclopropyl(4,4,4-trifluorobutanamido)methyl)imidazo[1,2-b]pyridazin-2-yl)(4,4-difluorocyclohexyl)methyl)-4-fluoro-1-isopropyl-1H-pyrazole-5-carboxamide]	52 nM	410 nM	–
Cc1nonc1C(=O)N[C@H](c1cn2ncc([C@H](NC(=O)CC(C)CC(F)(F)F)C3CC3)cc2n1)C1CCC(F)(F)CC1 (single isomer, unassigned) [Example 350, N—((S)-(7-((R)-Cyclopropyl((R*)-5,5,5-trifluoro-3-methylpentanamido)methyl)imidazo[1,2-b]pyridazin-2-yl)(4,4-difluorocyclohexyl)methyl)-4-methyl-1,2,5-oxadiazole-3-carboxamide]	270 nM	660 nM	–
O=C(CCC(F)(F)F)N[C@@H](c1cnn2cc([C@@H](NC(=O)c3cnnn3CC3CC(F)(F)C3(F)F)C3CCC(F)(F)CC3)nc2c1)C1CC1 (stereo partly drawn) [Example 94, N—((S)-(7-((R)-Cyclopropyl(4,4,4-trifluorobutanamido)methyl)imidazo[1,2-b]pyridazin-2-yl)(4,4-difluorocyclohexyl)methyl)-1-((2,2,3,3-tetrafluorocyclobutyl)methyl)-1H-1,2,3-triazole-5-carboxamide]	110 nM	150 nM	–
Cc1nonc1C(=O)N[C@H](c1cn2ncc([C@H](NC(=O)CC3CCCC3(F)F)C3CC3)cc2n1)C1CCC(F)(F)CC1 (stereo partly drawn) [Example 291, N-((1S)-(7-((1R)-Cyclopropyl(2-(2,2-difluorocyclopentyl)acetamido)methyl)imidazo[1,2-b]pyridazin-2-yl)(4,4-difluorocyclohexyl)methyl)-4-methyl-1,2,5-oxadiazole-3-carboxamide]	370 nM	4000 nM	–
O=C(CCC(F)(F)F)N[C@@H](c1cnn2cc([C@@H](NC(=O)c3ncccc3OCC(F)(F)F)C3CCC(F)(F)CC3)nc2c1)C1CC1 [Example 419, N—((S)-(7-((R)-Cyclopropyl(4,4,4-trifluorobutanamido)methyl)imidazo[1,2-b]pyridazin-2-yl)(4,4-difluorocyclohexyl)methyl)-3-(2,2,2-trifluoroethoxy)picolinamide]	1300 nM	> 20000 nM	–
O=C(CCC(F)(F)F)NCc1cnn2cc([C@@H](NC(=O)c3ccccc3)C3CCC(F)(F)CC3)nc2c1 [Example 5, (S)—N-((4,4-Difluorocyclohexyl)(7-((4,4,4-trifluorobutanamido)methyl)imidazo[1,2-b]pyridazin-2-yl)methyl)benzamide]	1100 nM	1900 nM	–
CC(C)n1nccc1C(=O)N[C@H](c1cn2ncc(C(NC(=O)C(F)(F)CC3CC3)C3(C#N)CC3)cc2n1)C1CCC(F)(F)CC1 (single isomer, unassigned) [Example 437, N—((S)-(7-((R*)-(1-Cyanocyclopropyl)(3-cyclopropyl-2,2-difluoropropanamido)methyl)imidazo[1,2-b]pyridazin-2-yl)(4,4-difluorocyclohexyl)methyl)-1-isopropyl-1H-pyrazole-5-carboxamide]	3800 nM	> 20000 nM	–
CC(n1nccc1C(=O)N[C@H](c1cn2ncc([C@H](NC(=O)CCC(F)(F)F)C3CC3)cc2n1)C1CCC(F)(F)CC1)C(F)(F)F (single isomer, unassigned) [Example 116, N—((S)-(7-((R)-Cyclopropyl(4,4,4-trifluorobutanamido)methyl)imidazo[1,2-b]pyridazin-2-yl)(4,4-difluorocyclohexyl)methyl)-1-((S*)-1,1,1-trifluoropropan-2-yl)-1H-pyrazole-5-carboxamide]	100 nM	–	210 nM
O=C(CCC(F)(F)F)N[C@@H](c1cnn2cc([C@@H](NC(=O)c3cc(OC(F)F)ccc3F)C3CCC(F)(F)CC3)nc2c1)C1CC1 [Example 169, N—((S)-(7-((R)-Cyclopropyl(4,4,4-trifluorobutanamido)methyl)imidazo[1,2-b]pyridazin-2-yl)(4,4-difluorocyclohexyl)methyl)-5-(difluoromethoxy)-2-fluorobenzamide]	37 nM	200 nM	–
CC(C)c1nonc1C(=O)N[C@H](c1cn2ncc([C@H](NC(=O)CC3CC(F)(F)C3)C3CC3)cc2n1)C1CCC(F)(F)CC1 [Example 281, N—((S)-(7-((R)-Cyclopropyl(2-(3,3-difluorocyclobutyl)acetamido)methyl)imidazo[1,2-b]pyridazin-2-yl)(4,4-difluorocyclohexyl)methyl)-4-isopropyl-1,2,5-oxadiazole-3-carboxamide]	24 nM	26 nM	–
Cc1nonc1C(=O)N[C@H](c1cn2ncc([C@H](NC(=O)CC34CC(C3)C4)C3CC3)cc2n1)C1CCC(F)(F)CC1 [Example 249, N—((S)-(7-((R)-(2-(Bicyclo[1.1.1]pentan-1-yl)acetamido)(cyclopropyl)methyl)imidazo[1,2-b]pyridazin-2-yl)(4,4-difluorocyclohexyl)methyl)-4-methyl-1,2,5-oxadiazole-3-carboxamide]	24 nM	98 nM	–
O=C(CCC(F)(F)F)N[C@@H](c1cnn2cc([C@@H](NC(=O)c3conc3CCF)C3CCC(F)(F)CC3)nc2c1)C1CC1 [Example 99, N—[(S)-[7-[(R)-Cyclopropyl-(4,4,4-trifluorobutanoylamino)methyl]imidazo[1,2-b]pyridazin-2-yl]-(4,4-difluorocyclohexyl)methyl]-3-(2-fluoroethyl)isoxazole-4-carboxamide]	57 nM	60 nM	–
Cc1nonc1C(=O)N[C@H](c1cn2ncc([C@H](NC(=O)CC(C)(C)C(F)F)C3CC3)cc2n1)C1CCC(F)(F)CC1 [Example 312, N—((S)-(7-((R)-Cyclopropyl(4,4-difluoro-3,3-dimethylbutanamido)methyl)imidazo[1,2-b]pyridazin-2-yl)(4,4-difluorocyclohexyl)methyl)-4-methyl-1,2,5-oxadiazole-3-carboxamide]	370 nM	3200 nM	–
CCOc1nocc1C(=O)N[C@H](c1cn2ncc([C@H](NC(=O)CCC(F)(F)F)C3CC3)cc2n1)C1CCC(F)(F)CC1 [Example 238, N—((S)-(7-((R)-Cyclopropyl(4,4,4-trifluorobutanamido)methyl)imidazo[1,2-b]pyridazin-2-yl)(4,4-difluorocyclohexyl)methyl)-3-ethoxyisoxazole-4-carboxamide]	190 nM	830 nM	–
CC(C)n1ncnc1C(=O)N[C@H](c1cn2ncc(C(NC(=O)CC3CC(F)(F)C3)C3CCOCC3)cc2n1)C1CCC(F)(F)CC1 (stereo in doubt) [Example 537, N—((S)-(7-((R*)-(2-(3,3-Difluorocyclobutyl)acetamido)(tetrahydro-2H-pyran-4-yl)methyl)imidazo[1,2-b]pyridazin-2-yl)(4,4-difluorocyclohexyl)methyl)-1-isopropyl-1H-1,2,4-triazole-5-carboxamide]	150 nM	150 nM	–
